Test results reported in publication PMC9401487 (Clinical Cancer Research, 2021).
Like-named read-outs stand apart in the source and are kept apart here.

Columns and labels:
advanced solid tumors = test: Preliminary antitumor activity, tumor response by RECIST v1.1; type: in vivo, human
[1] = Clinical plasma pharmacokinetics of ceralasertib; type: in vivo; settings: human, oral
pRAD50 = pRAD50 IHC H-score in paired tumor biopsies; type: in vivo, human
ATR = settings: read-out: IC90 for ATR inhibition in cells; cited from earlier work
[2] = test system: TP53-mutant triple-negative breast cancer PDX; settings: cited from earlier work

C[C@@H]1COCCN1c1cc(C2([S@](C)(=N)=O)CC2)nc(-c2cc[nH]c3nccc2-3)n1 [ceralasertib]
Best response of progressive disease, patients (advanced solid tumors; 12 of 34 response-evaluable patients): 35%
Best RECIST v1.1 response of stable disease (≥35 days), patients (advanced solid tumors; 18 of 34 response-evaluable patients, including the two unconfirmed PRs): 53%
Unconfirmed RECIST v1.1 PRs (advanced solid tumors; evaluable-for-response set n=34, 1 in cohort 3, 1 in cohort 7): 2 patients
Confirmed RECIST v1.1 partial responses (advanced solid tumors; evaluable-for-response set n=34, both in cohort 6): 2 patients
Tumor reduction (unconfirmed response) (advanced solid tumors; one patient, cohort 7, clear cell ovarian cancer, two cycles): 43%
half-life ([1]; mean half-life, administered alone): 8.14 to 10.6 h
half-life ([1]; mean half-life, in combination with carboplatin): 5.14 to 7.22 h
Tmax ([1]; median tmax, in combination with carboplatin): 1.05 to 1.07 h
Tmax ([1]; median tmax, single dose, alone, across dose groups): 1 to 1.03 h
half-life ([1]; terminal plasma half-life, abstract summary): 8 to 11 h
Tmax ([1]; tmax, abstract summary): ~1 h
pRAD50 expression following treatment (pRAD50; all four evaluable paired tumor biopsies): clear increases in pRAD50 expression
Increase in pRAD50 expression (pRAD50; cohort 7 patient, baseline ATM 20%, H-scores of 20–80): 400%
Tumor control ([2]; carboplatin dosed concurrently with ceralasertib on day 2 or 3): growth inhibition rather than tumor control
Antitumor efficacy ([2]; ceralasertib dosed 2 days after carboplatin): tumor control
Antitumor efficacy ([2]; ceralasertib dosed 3 days after carboplatin): tumor regression
